From patent US11267859B2, “GM-CSF mimetics and methods of making and using same” (The Regents of the University of Colorado, a body corporate, priority 2017, dated 2022)

Experiments:
human receptor = target: T1, human receptor (Homo sapiens, UniProt P15509+P32927); assay: Activity for the human GM-CSF receptor
T1 sequence (P15509 23-400): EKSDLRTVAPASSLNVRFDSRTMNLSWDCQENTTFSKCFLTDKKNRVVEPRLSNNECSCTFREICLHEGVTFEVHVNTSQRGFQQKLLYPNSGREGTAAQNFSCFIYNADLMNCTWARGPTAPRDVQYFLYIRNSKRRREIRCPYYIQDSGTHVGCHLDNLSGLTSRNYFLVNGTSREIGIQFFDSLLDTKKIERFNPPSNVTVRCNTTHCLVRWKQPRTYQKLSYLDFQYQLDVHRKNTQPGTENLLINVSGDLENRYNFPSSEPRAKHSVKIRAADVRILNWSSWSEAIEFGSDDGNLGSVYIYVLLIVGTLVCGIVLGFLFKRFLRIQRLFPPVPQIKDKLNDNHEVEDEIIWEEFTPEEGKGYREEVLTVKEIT
T1 sequence (P32927 17-897): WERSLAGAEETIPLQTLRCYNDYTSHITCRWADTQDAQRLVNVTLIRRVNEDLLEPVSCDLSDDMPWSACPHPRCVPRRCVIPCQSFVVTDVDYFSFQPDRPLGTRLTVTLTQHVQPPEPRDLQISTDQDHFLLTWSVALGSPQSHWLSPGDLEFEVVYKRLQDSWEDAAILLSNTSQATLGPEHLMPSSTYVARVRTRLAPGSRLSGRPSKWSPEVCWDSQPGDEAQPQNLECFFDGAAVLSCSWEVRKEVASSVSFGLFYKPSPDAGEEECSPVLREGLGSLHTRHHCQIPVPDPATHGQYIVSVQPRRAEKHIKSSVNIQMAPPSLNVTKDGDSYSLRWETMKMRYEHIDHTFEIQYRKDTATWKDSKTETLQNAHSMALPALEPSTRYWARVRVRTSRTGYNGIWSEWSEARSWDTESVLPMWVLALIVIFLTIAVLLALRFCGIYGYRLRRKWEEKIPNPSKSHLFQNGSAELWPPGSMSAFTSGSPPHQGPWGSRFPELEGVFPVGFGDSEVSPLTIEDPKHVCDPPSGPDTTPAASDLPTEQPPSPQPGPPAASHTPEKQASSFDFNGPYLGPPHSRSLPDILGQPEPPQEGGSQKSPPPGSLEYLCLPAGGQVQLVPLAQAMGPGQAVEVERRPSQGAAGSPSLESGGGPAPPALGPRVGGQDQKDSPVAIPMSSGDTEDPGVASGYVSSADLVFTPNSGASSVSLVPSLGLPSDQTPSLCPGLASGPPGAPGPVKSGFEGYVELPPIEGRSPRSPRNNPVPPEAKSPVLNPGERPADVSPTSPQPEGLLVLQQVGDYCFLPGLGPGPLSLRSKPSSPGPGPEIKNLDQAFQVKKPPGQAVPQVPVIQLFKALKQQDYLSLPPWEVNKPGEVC

mouse receptor = target: T2, mouse receptor (Mus musculus, UniProt P26955+Q00941); assay: Activity for the mouse GM-CSF receptor
T2 sequence (Q00941 30-388): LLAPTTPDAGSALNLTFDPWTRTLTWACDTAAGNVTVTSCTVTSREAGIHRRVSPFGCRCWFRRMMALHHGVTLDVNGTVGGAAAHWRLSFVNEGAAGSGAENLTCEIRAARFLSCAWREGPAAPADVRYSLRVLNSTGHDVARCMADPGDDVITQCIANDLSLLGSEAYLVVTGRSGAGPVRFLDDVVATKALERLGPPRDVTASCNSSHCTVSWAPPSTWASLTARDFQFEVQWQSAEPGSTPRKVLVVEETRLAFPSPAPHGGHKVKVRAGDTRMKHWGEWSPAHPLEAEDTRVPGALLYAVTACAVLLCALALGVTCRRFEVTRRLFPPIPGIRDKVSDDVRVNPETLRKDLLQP
T2 sequence (P26955 23-896): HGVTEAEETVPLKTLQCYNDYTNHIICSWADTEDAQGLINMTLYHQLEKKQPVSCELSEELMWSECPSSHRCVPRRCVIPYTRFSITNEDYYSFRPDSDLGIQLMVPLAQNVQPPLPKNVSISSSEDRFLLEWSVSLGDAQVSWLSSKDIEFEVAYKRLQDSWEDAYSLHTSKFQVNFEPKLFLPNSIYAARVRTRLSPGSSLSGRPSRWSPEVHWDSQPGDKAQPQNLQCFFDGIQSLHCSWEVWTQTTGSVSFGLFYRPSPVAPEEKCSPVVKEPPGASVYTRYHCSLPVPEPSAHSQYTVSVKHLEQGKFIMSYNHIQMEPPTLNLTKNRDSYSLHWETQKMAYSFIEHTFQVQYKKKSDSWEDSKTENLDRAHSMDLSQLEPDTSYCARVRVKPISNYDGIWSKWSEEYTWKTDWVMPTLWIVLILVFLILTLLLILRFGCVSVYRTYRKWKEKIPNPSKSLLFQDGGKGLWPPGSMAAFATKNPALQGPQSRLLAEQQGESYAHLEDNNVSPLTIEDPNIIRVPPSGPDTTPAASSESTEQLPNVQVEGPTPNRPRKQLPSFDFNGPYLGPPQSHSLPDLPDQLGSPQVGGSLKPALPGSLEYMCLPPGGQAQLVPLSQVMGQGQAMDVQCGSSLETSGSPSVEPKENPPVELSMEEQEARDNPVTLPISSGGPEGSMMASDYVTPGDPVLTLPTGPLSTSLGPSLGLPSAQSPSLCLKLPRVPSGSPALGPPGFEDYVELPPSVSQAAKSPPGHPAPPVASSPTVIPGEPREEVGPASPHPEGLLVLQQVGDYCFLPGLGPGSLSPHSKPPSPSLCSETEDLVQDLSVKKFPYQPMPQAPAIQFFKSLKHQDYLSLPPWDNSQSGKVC

Sequence: QPWEHVNAIQEAR {PEG4} DFLLVIP {PEG4} QPWEHVNAIQEAR {PEG4} DFLLVIP [Mimetic M7]
- activity for the human receptor (human receptor): does not have activity
- activity for the mouse receptor (mouse receptor): has activity
